Test results as given in US11931327B2, “Drug for retinal degenerative disease associated with photoreceptor degeneration” (Daiichi Sankyo Company, Limited, priority 2017, dated 2024).

Legend:
[1] = test system: transgenic zebrafish Tg (rho: NTR-NanoLuc, my17: DsRed2); assay: animal or person; conditions: for EC50: Danio rerio, 48 h, read-out: EC50 of rod-cell regeneration induction (Activation (% of control) 50%); for rod-cell regeneration induction activity: Example 6, various RAR agonists; for rod-cell regeneration induction activity compared to the DMSO control: Examples 3 and 4, TTNPB 0.3, 1, 3, 10 and 30 μM, N=4, RA and BMS493 N=8, Dunnett's test
From the text: First, the present inventors constructed a model for evaluating induction of rod cell regeneration. […] Transgenic zebrafish Tg (rho: NTR-NanoLuc, my17: DsRed2), in which a fluorescent protein, DsRed2, which is cardiac-tissue specifically expressed by cardiomyocyte-specific my17 promoter, can be simply detected by using dsRed2 as a marker under a fluorescence stereomicroscope. In the transgenic zebrafish, in addition to cardiac tissue specific expression of DsRed2, a reductase, i.e., nitroreductase (NTR), and a photoprotein, i.e., NanoLuc fusion protein (NTR-NanoLuc), are expressed by a rod-cell specific rho promoter, in a rod-cell specific manner. […] However, if, a prodrug, metronidazole, is added, non-toxic metronidazole is converted to a toxic radical by NTR. […] After rod cells are ablated by treatment with metronidazole, the transgenic zebrafish were washed with rearing water to remove the toxic radical. […] In the transgenic zebrafish, rod cells can be quantitatively determined by measuring the amount of luminescence derived from rod-cell-specific NanoLuc expression. After the rod cells are ablated, the transgenic zebrafish are exposed to a test compound. The activity of the test compound to induce rod-cell regeneration can be quantitatively evaluated by measuring the amount of luminescence derived from NanoLuc and specific to rod cells.
1) On the day before collection of eggs, a pair of male and female zebrafish, i.e., a transgenic fish Tg (rho: NTR-NanoLuc, my17: DsRed2) and a wild type, were placed in a tank for mating and isolated by a divider.
2) The next morning (8:00-11:00), the divider was removed to allow them to mate with each other. Fertilized eggs were collected. In the evening (16:00-18:00) of the same day, only normally developed fertilized eggs were screened and raised in a plate for growth.
3) Day 3 after fertilization, juvenile fish were transferred to rearing water, which contained 10 mM metronidazole (Sigma-Aldrich, Japan) and 1% DMSO (Wako Pure Chemical Industries Ltd.), (prepared by dissolving 60 mg of instant ocean (Napco Limited (Japan)) in 1 L of distilled water), and raised in dark conditions for 24 hours. In this manner, ablation was specifically applied to the rod cells of the juvenile fish. In contrast, non-ablated juvenile fish, which were to be used as a control, were transferred to a tank containing rearing water, which contained a 1% DMSO solution, and raised.
5) Ablated juvenile fish of 4 days after fertilization were washed well with Egg water and dispensed in wells of the assay plate containing a compound together with 100 μL of Egg water, such that 2 juvenile fish individuals were present per well.
6) After the juvenile fish were raised for 2 days, […] of Egg water was removed and ethyl 3-aminobenzoate methanesulfonate (Sigma-Aldrich Japan; 0.4 mg/mL, 10 μL) was added to euthanize the fish.
7) Nano-Glo (registered trademark) Luciferase assay Substrate (Promega Corporation) was added to Nano-Glo (registered trademark) Luciferase assay buffer (Promega Corporation) in a ratio of 1:50 and 100 μL of the resultant solution was added to each of the wells.
8) Shaking was carried out by use of BIO-Mixer (Biotech Japan Co., Ltd.) for one hour and luminescence of NanoLuc (registered trademark) was measured by use of EnVision (PerkinElmer Co., Ltd., Japan).
Individual concentration groups were compared to the DMSO control group by the Dunnett's test.

Human RARγ = target: T1, Human RARγ (Homo sapiens, UniProt P13631); assay: RAR agonistic activity, luciferase reporter (3xDR5: luc) in HEK293A cells; conditions: concentration exhibiting luminescence of 500% of Negative control; 24 hours exposure; N=4
T1 sequence (P13631 1-454): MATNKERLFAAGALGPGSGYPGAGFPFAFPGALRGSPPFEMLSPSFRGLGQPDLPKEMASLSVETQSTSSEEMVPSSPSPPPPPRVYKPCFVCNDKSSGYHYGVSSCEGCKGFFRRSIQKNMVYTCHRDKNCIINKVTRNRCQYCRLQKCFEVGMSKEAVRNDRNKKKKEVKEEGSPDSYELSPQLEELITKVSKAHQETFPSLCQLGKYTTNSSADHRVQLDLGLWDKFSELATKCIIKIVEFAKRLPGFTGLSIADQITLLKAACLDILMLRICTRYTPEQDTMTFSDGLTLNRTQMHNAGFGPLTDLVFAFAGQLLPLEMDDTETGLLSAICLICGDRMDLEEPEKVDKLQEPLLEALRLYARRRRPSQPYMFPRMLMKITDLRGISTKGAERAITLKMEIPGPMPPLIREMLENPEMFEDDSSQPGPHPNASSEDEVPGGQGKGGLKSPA
Experimental: (§1) RAR agonistic activity was measured in the following procedure.
(§2) 1) HEK293A cells (Invitrogen), which functionally co-express Human RARα, Human RARβ and Human RARγ, were prepared by adding Lipofectamine (registered trademark) 2000 Transfection Reagent (Thermo Fisher Scientific) to an RAR synthetic response element luciferase reporter construct (3xDR5: luc) in accordance with the method described in the manual attached to the kit.
(§3) 3) Twenty-four hours after exposure to a compound, luminescence from the cells was measured by using PICCA JEAN (registered trademark) luminescence kit (TOYO B-Net CO., LTD.) and EnVision (PerkinElmer Corporation, Japan) (N=4).
(§4) In evaluation of RAR agonistic activity, provided that the measurement value (Negative control) of luminescence from the cells with no addition of a compound was determined as 100%, the RAR agonistic activity (%) of a test substance was calculated in accordance with the following expression. The average value thereof was plotted versus the concentration of a test substance. RAR agonistic activity (%)=(measurement value of sample well÷average value of Negative control)×100

Human RARβ = target: T2, Human RARβ (Homo sapiens, UniProt P10826); assay: as above; conditions: concentration exhibiting luminescence of 1000% of Negative control; 24 hours exposure; N=4
T2 sequence (P10826 1-448 isoform P10826-2): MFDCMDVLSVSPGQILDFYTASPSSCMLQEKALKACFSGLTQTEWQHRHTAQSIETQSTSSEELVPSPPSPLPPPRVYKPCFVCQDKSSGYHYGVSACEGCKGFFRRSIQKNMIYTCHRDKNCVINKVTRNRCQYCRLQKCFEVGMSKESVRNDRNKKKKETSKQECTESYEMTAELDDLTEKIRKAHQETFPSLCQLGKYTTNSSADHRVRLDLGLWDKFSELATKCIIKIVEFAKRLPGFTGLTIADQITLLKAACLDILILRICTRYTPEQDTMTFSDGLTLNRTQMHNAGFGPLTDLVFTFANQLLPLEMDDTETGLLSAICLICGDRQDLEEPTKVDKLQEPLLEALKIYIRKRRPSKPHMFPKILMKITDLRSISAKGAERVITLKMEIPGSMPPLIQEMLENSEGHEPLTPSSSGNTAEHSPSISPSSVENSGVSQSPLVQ
Experimental: as §1, §2, §3, §4

Human RARα = target: T3, Human RARα (Homo sapiens, UniProt P10276); assay: as above; conditions: concentration exhibiting luminescence of 1000% of Negative control; 24 hours exposure; N=4
T3 sequence (P10276 1-462): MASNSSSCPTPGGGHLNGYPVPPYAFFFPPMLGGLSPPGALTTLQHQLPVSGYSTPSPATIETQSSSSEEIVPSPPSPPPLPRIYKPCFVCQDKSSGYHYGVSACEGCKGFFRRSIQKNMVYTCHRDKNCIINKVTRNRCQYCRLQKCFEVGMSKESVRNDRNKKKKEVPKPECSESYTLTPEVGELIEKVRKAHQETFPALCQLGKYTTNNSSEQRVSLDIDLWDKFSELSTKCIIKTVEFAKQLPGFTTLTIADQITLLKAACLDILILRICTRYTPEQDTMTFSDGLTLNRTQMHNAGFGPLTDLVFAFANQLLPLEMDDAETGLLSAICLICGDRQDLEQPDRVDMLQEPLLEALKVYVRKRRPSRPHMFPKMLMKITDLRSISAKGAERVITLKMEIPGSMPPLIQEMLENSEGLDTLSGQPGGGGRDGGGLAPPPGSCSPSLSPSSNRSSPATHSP
Experimental: as §1, §2, §3, §4

[2] = test system: transgenic zebrafish Tg (rho: NTR-NanoLuc, my17: DsRed2); assay: Validation: ablation of rod cells by metronidazole, luminescence derived from rod cells; type: in vivo; conditions: 10 mM for 24 hours, day 3 after fertilization
Experimental: Thereafter, rod-cells are gradually regenerated in the zebrafish.
Day 3 after fertilization, the transgenic zebrafish were treated with 10 mM metronidazole (Sigma-Aldrich Japan) for 24 hours and euthanized by adding ethyl 3-aminobenzoate methanesulfonate (Sigma-Aldrich Japan). Luminescence derived from rod cells was measured in accordance with the manual attached to Nano-Glo (registered trademark) Luciferase Assay System (Promega Corporation). […] The resultant transgenic ablated fish were washed with rearing water, and a toxic radical derived from metronidazole was removed. Luminescence derived from the rod cells after 24 and 48 hours was measured. As a result, it was confirmed that rod cells are gradually regenerated over 48 hours (FIG. 3).

[3] = test system: pathological zebrafish 2: Tg (rho: NTR-NanoLuc, my17: DsRed2) crossed with Tg (rho: hRHO (Q344X), omp: EGFP); assay: Rod-cell regeneration effect in retinitis pigmentosa model, quantitative evaluation by NanoLuc luminescence; type: in vivo; conditions: N=8 per concentration; Dunnett's test; FIG. 7
Experimental: Pathological model zebrafish, in which rod-cell regeneration can be quantitatively evaluated, were newly prepared using zebrafish known as a retinitis pigmentosa model. The effect of compounds was quantitatively verified in accordance with the following procedure.
1) Quantitative evaluation of rod-cell regeneration was carried out by zebrafish (pathological zebrafish 2) obtained by crossing transgenic Tg (rho: NTR-NanoLuc, my17: DsRed2) and Tg (rho: hRHO (Q344X), omp: EGFP).
Fertilized eggs were collected.
A screening test was repeated 8 times (N=8) at each concentration.
2) After shaking for one hour using BIO-Mixer, the luminescence from NanoLuc (registered trademark) was measured by use of EnVision.

CC1(C)CCSc2ccc(C#Cc3ccc(C(=O)O)cn3)cc21 [Tazarotenic acid]
EC50 [1]: 786 nM
RARγ EC500 (Human RARγ): 48 nM
RARβ EC1000 (Human RARβ): 4.4 nM
RARα EC1000 (Human RARα): 12 nM

COC(=O)c1ccc(C(=O)Nc2ccc3c(c2)C(C)(C)CCC3(C)C)cc1 [Tamibarotene methyl ester]
EC50 [1]: 85.4 nM
RARγ EC500 (Human RARγ): 72.8 nM
RARβ EC1000 (Human RARβ): 29.1 nM
RARα EC1000 (Human RARα): 0.91 nM

Cc1ncc([N+](=O)[O-])n1CCO [metronidazole]
number of rod cells remaining after ablation (luminescence) [2]: 13.5%

CCOC(=O)c1ccc(C(=O)Nc2ccc3c(c2)C(C)(C)CCC3(C)C)cc1 [Tamibarotene ethyl ester]
EC50 [1]: 4.9 nM
rod-cell regeneration induction activity [1]: strong rod-cell regeneration induction activity
RARγ EC500 (Human RARγ): 714 nM
RARβ EC1000 (Human RARβ): 514 nM
RARα EC1000 (Human RARα): 21.8 nM

4-[(1E)-2-[5,6-dihydro-5,5-dimethyl-8-(2-phenylethynyl)-2naphthalenyl]ethenyl]benzoate [BMS493]
precipitation of compound in the assay ([1]; 30 μM): precipitated
toxicity to fish ([1]; 100 μM, cardiac arrest): all fish died
rod-cell regeneration induction activity compared to the DMSO control [1]: did not show rod-cell regeneration induction activity

CCOC(=O)c1ccc(C#Cc2ccc3c(c2)C(C)(C)CCS3)nc1 [Tazarotene]
EC50 [1]: 402 nM

COc1ccc(-c2ccc3cc(C(=O)O)ccc3c2)cc1C12CC3CC(CC(C3)C1)C2 [Adapalene]
EC50 [1]: > 1000 nM
Activation (% of control) ([1]; at 1000 nM (the maximum concentration evaluated), DMSO = 0%, 1 μM TTNPB = 100%): 39%
RARγ EC500 (Human RARγ): 54 nM
RARβ EC1000 (Human RARβ): 6.9 nM
RARα EC1000 (Human RARα): 12 nM

CC1=C(/C=C/C(C)=C/C=C/C(C)=C/C(=O)O)C(C)(C)CCC1 [All-trans Retinoic acid]
rod-cell regeneration induction activity compared to the DMSO control [1]: significant rod-cell regeneration induction activity in a concentration-dependent manner

CC1(C)CCC(C)(C)c2cc(NC(=O)c3ccc(C(=O)O)cc3)ccc21 [Tamibarotene]
EC50 [1]: 9.08 nM
rod-cell regeneration induction activity [1]: strong rod-cell regeneration induction activity
regeneration of rod cells in the retinitis pigmentosa model (luminescence, words) [3]: statistically significant regeneration of rod cells in a dose dependent manner
RARγ EC500 (Human RARγ): 248 nM
RARβ EC1000 (Human RARβ): 79 nM

CC1(C)CCC(C)(C)c2cc(Cn3cccn3)c(/C=C/c3ccc(C(=O)O)cc3)cc21 [Palovarotene]
EC50 [1]: 1210 nM
